Assay results taken from patent US20240043450A1, “NEW COMPOUND” (JANSSEN PHARMACEUTICA NV, priority 2020, published 2024).

Columns and labels:
[1] = biological target: T1, NLRP3 (Homo sapiens, UniProt Q96P20); assay: PBMC assay: IL-1β levels in supernatant of LPS-stimulated human PBMCs (MSD); type: cell-based; details: 30 min compound pre-incubation, 100 ng/ml LPS for 6 hrs, IL-1β in supernatant, read-out: IL-1B IC50
T1 construct: human peripheral blood mononuclear cells (PBMCs) were isolated from blood; endogenous in cells; host or cells: primary human PBMCs from healthy donors
T1 sequence (Q96P20 whole entry): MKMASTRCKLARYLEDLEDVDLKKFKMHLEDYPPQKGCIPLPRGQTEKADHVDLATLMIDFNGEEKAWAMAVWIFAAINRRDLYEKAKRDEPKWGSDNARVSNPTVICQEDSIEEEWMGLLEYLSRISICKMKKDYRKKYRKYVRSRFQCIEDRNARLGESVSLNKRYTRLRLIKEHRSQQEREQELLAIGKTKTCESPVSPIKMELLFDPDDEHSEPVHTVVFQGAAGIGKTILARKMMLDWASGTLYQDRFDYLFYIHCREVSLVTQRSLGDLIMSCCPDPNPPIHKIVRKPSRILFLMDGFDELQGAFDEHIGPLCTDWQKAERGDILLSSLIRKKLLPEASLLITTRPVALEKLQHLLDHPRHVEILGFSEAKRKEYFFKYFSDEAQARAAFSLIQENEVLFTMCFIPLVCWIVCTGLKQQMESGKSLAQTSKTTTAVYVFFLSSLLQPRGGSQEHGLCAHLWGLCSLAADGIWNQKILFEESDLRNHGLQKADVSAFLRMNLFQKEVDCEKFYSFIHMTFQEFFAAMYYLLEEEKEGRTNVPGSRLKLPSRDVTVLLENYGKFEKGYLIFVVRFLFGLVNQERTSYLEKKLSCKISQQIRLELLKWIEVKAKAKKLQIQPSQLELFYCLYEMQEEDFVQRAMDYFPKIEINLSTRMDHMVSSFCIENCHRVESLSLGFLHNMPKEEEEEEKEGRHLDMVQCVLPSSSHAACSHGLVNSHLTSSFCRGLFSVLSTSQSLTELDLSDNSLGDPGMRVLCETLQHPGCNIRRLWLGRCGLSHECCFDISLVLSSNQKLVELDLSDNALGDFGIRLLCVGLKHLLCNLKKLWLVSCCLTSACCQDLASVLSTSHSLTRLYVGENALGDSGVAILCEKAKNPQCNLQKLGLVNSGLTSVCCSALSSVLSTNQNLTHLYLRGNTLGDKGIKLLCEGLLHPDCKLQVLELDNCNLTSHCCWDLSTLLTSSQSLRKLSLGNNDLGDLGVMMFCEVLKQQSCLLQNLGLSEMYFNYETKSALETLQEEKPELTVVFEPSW
Procedure: The activity of a compound according to the present invention can be assessed by in vitro methods.
Peripheral venous blood was collected from healthy individuals and human peripheral blood mononuclear cells (PBMCs) were isolated from blood by Ficoll-Histopaque (Sigma-Aldrich, A0561) density gradient centrifugation. After isolation, PBMCs were stored in liquid nitrogen for later use. Upon thawing, PBMC cell viability was determined in growth medium (RPMI media supplemented with 10% fetal bovine serum, 1% Pen-Strep and 1% L-glutamine). […] PBMCs were added at a density of 7.5×10^4 cells per well and incubated for 30 min in a 5% CO2 incubator at 37° C. LPS stimulation was performed by addition of 100 ng/ml LPS (final concentration, Invivogen, tlrl-smlps) for 6 hrs followed by collection of cellular supernatant and the analysis of IL-1β […] and TNF cytokines levels […] via MSD technology according to manufacturers' guidelines (MSD, K15A0H).

[2] = system: TNF; assay: PBMC assay: TNF cytokine levels in supernatant of LPS-stimulated human PBMCs (MSD); type: cell-based; details: 30 min compound pre-incubation, 100 ng/ml LPS for 6 hrs
Procedure: Peripheral venous blood was collected from healthy individuals and human peripheral blood mononuclear cells (PBMCs) were isolated from blood by Ficoll-Histopaque (Sigma-Aldrich, A0561) density gradient centrifugation. After isolation, PBMCs were stored in liquid nitrogen for later use. Upon thawing, PBMC cell viability was determined in growth medium (RPMI media supplemented with 10% fetal bovine serum, 1% Pen-Strep and 1% L-glutamine). Compounds were spotted in a 1:3 serial dilution in DMSO and diluted to the final concentration in 30 μl medium in 96 well plates (Falcon, 353072). PBMCs were added at a density of 7.5×10^4 cells per well and incubated for 30 min in a 5% CO2 incubator at 37° C. LPS stimulation was performed by addition of 100 ng/ml LPS (final concentration, Invivogen, tlrl-smlps) for 6 hrs followed by collection of cellular supernatant and the analysis of IL-1β […] and TNF cytokines levels […] via MSD technology according to manufacturers' guidelines (MSD, K15A0H).
The IC50 values (for IL-1β) and EC50 values (TNF) were obtained on compounds of the invention/examples, and are depicted in the following table: […]

Structure (SMILES)	IC50 [1] [µM]	EC50 ([2]; Homo sapiens, PBMC) [µM]	melting point [°C]	EC50 [2] [µM]
CC(C)c1nc2c(N(C)C)nn(CC(=O)N[C@H]3C[C@@](C)(O)C3)c(=O)c2s1 [F-6]	0.258	> 20		
CCNc1nc2c(C(C)C)nn(CC(=O)N[C@H]3C[C@@](C)(O)C3)c(=O)c2s1 [F-18]	0.128	> 20	216.6	
CC(C)c1nn(CC(=O)Nc2ccn3cnnc3c2)c(=O)c2sc(C3CC3)nc12 [F-17]		12.5	206	
CC(C)c1nn(CC(=O)Nc2cc(C(F)(F)F)ncn2)c(=O)c2sc(C3CC3)nc12 [F-50]	> 20	> 20	172	
CC(C)c1nn(CC(=O)Nc2ccc3nncn3n2)c(=O)c2sc(C3CC3)nc12 [F-57]	0.019	4.89	245.4	
CC(C)c1nn(CC(=O)Nc2ccc3nccn3n2)c(=O)c2sc(C(C)(F)F)nc12 [F-53]	0.215	11.9	206.5	
CC(C)c1nn(CC(=O)Nc2ccc3nnc(C(F)F)n3c2)c(=O)c2sc(C3CC3)nc12 [F-39]	0.446	13.1	216.3	
O=C(Cn1nc(C2CC2)c2nc(C3CC3)sc2c1=O)Nc1ccc2nncn2n1 [F-54]	0.15	~17.3	248.3	
CC(C)c1nn(CC(=O)Nc2ccc(C(F)F)nc2)c(=O)c2sc(C3CC3)nc12 [F-45]	0.907	17.4	170.1	
CC(C)c1nn(CC(=O)Nc2ccc(=O)n(C)c2)c(=O)c2sc(C3CC3)nc12 [F-46]	0.137	> 20	240.9	
CC(C)c1nn(CC(=O)Nc2ccc3nncn3c2)c(=O)c2sc(C(F)(F)F)nc12 [F-22]	0.332	> 20	261.8	
C[C@]1(O)C[C@@H](NC(=O)Cn2nc(C3CC3)c3nc(C4CC4)sc3c2=O)C1 [F-27]	0.78	> 20	198.2	
CC(C)c1nn(CC(=O)Nc2cnc3ccnn3c2)c(=O)c2sc(C3CC3)nc12 [F-44]	2.31	> 20		
CC(C)c1nn(CC(=O)Nc2ccc3nncn3n2)c(=O)c2sc(C(C)(F)F)nc12 [F-52, N-([1,2,4]triazolo[4,3-b]pyridazin-6-yl)-2-(2-(1,1-difluoroethyl)-4-isopropyl-7-oxothiazolo[4,5-d]pyridazin-6(7H)-yl)acetamide]	0.056	18.6		
CC(C)c1nn(CC(=O)N[C@H]2C[C@@](C)(O)C2)c(=O)c2sc(C(F)(F)F)nc12 [F-21]	0.469	> 20	181.4	
CC(C)c1nc2c(C(C)C)nn(CC(=O)Nc3ccncn3)c(=O)c2s1 [F-2]	0.105	5.59		
CC(C)c1nn(CC(=O)Nc2cc(Cl)c(=O)n(C(F)F)c2)c(=O)c2sc(C3CC3)nc12 [F-48]	1.45	17.9	206.7	
Cn1nc(NC(=O)Cn2nc(C3CC3)c3nc(C4CC4)sc3c2=O)ccc1=O [F-25]	0.715	~12.6	219.9	
CC(C)c1nn(CC(=O)Nc2ccc3nncn3c2)c(=O)c2sc(C3CC3)nc12 [F-12]	0.023	4.99		
Cc1nnc2n1C[C@@H](NC(=O)Cn1nc(C(C)C)c3nc(C4CC4)sc3c1=O)CC2 (single isomer, unassigned) [F-33]	0.3	> 20		
CC(C)c1nc2c(C(C)C)nn(CC(=O)N[C@H]3C[C@@](C)(O)C3)c(=O)c2s1 [F-5]	0.156	> 20		
CC(C)c1nn(CC(=O)Nc2ccncn2)c(=O)c2sc(C3CC3)nc12 [F-1, 2-(2-cyclopropyl-4-isopropyl-7-oxo-thiazolo[4,5-d]pyridazin-6-yl)-N-pyrimidin-4-yl-acetamide]	0.105	19.7		
CC(C)c1nn(CC(=O)Nc2ccc3nncn3c2)c(=O)c2sc(C3CC3(F)F)nc12 (centres unmarked) [F-20]	0.1	> 20		
CC(C)c1nn(CC(=O)Nc2ccc3nnc(Cl)n3n2)c(=O)c2sc(C3CC3)nc12 [F-51]	0.286	> 20		
CC(C)c1nn(CC(=O)Nc2ccc3nccn3c2)c(=O)c2sc(C3CC3)nc12 [F-36]	0.072	15.9		

Second part, the molecule after the results:

IC50 [1] [µM]	EC50 ([2]; Homo sapiens, PBMC) [µM]	melting point [°C]	EC50 [2] [µM]	Structure (SMILES)
0.11	10.8	250		Cc1nnc2ccc(NC(=O)Cn3nc(C(C)C)c4nc(C5CC5)sc4c3=O)nn12 [F-56]
		299.1	> 20	CC(C)c1nn(CC(=O)Nc2ccn3cnnc3c2)c(=O)c2sc(C3CC3)nc12 [F-40]
0.181	7.18			CC(C)c1nc2c(C(C)C)nn(CC(=O)Nc3ccnnc3)c(=O)c2s1 [F-3]
0.05	11.5			CC(C)c1nc2c(C(C)C)nn(CC(=O)Nc3ccc4nncn4c3)c(=O)c2s1 [F-4]
0.224	19.8			CC(C)c1nn(CC(=O)Nc2ccc3nc(C(F)(F)F)cn3c2)c(=O)c2sc(C3CC3)nc12 [F-58]
0.354	15.7	203.8		CC(C)c1nn(CC(=O)Nc2ccn3ncnc3c2)c(=O)c2sc(C3CC3)nc12 [F-38]
0.237	19.6	204.6		Cc1nc2ccc(NC(=O)Cn3nc(C(C)C)c4nc(C5CC5)sc4c3=O)cn2n1 [F-30]
0.247	> 20	147.1		CC(C)c1nn(CC(=O)Nc2cnc3nccn3c2)c(=O)c2sc(C3CC3)nc12 [F-37]
1.19	> 20	282.4		Cc1nnc2cc(NC(=O)Cn3nc(C(C)C)c4nc(C5CC5)sc4c3=O)ccn12 [F-35]
0.089	> 20			CC(C)c1nn(CC(=O)Nc2ccc3nncn3c2)c(=O)c2sc(C(C)(F)F)nc12 [F-23]
0.081		233.3		CC(C)c1nn(CC(=O)Nc2ccc(=O)n(C)n2)c(=O)c2sc(C3CC3)nc12 [F-16]
0.351	19.4	159.2		CCc1nc2c(C(C)C)nn(CC(=O)N[C@H]3C[C@@](C)(O)C3)c(=O)c2s1 [F-11]
0.274	18.6	186.5		CCc1nc2c(C(C)C)nn(CC(=O)Nc3ccnnc3)c(=O)c2s1 [F-10]
0.155	12.3	215.5		CC(C)c1nn(CC(=O)Nc2ccn3ccnc3c2)c(=O)c2sc(C3CC3)nc12 [F-29]
0.026	7.9			CC(C)c1nn(CC(=O)Nc2ccc3c(c2)[nH]c(=O)n3C)c(=O)c2sc(C3CC3)nc12 [F-15]
0.316	> 20			CC(C)c1nn(CC(=O)Nc2cc(C#N)c3nncn3c2)c(=O)c2sc(C3CC3)nc12 [F-60, N-(8-cyano-[1,2,4]triazolo[4,3-a]pyridin-6-yl)-2-(2-cyclopropyl-4-isopropyl-7-oxothiazolo[4,5-d]pyridazin-6(7H)-yl)acetamide]
0.169	> 20			CC(C)c1nc2c(N(C)C)nn(CC(=O)Nc3ccc4nncn4c3)c(=O)c2s1 [F-7]
0.055	18.2	190.5		CC(C)c1nn(CC(=O)N[C@H]2C[C@@](C)(O)C2)c(=O)c2sc(C3CC3)nc12 [F-14]
6.6	> 20			Cc1nnc2n1C[C@H](NC(=O)Cn1nc(C(C)C)c3nc(C4CC4)sc3c1=O)CC2 (single isomer, unassigned) [F-32]
0.097	6.36	195.8		CC(C)c1nn(CC(=O)Nc2ccc3cncn3c2)c(=O)c2sc(C3CC3)nc12 [F-28]
0.1	6.59	195.2		CC(C)c1nn(CC(=O)Nc2ccnnc2)c(=O)c2sc(C3CC3)nc12 [F-13]
1.24	~19.6			CC(C)c1nn(CC(=O)Nc2ccn3c(F)cnc3c2)c(=O)c2sc(C3CC3)nc12 [F-47]
0.069	2.16	201.7		CC(C)c1nn(CC(=O)Nc2ccc3nccn3n2)c(=O)c2sc(C3CC3)nc12 [F-59]
0.407	> 20			Cc1nnc2n1CC(NC(=O)Cn1nc(C(C)C)c3nc(C4CC4)sc3c1=O)CC2 (centres unmarked) [F-31]
0.188	> 20			CC(C)c1nn(CC(=O)Nc2ccc3nc(C#N)cn3c2)c(=O)c2sc(C3CC3)nc12 [F-42]
